Reference: ChEMBL document CHEMBL5335767, “Synthesis and study of new siderophore analog-ciprofloxacin conjugates with antibiotic activities against Pseudomonas aeruginosa and Burkholderia spp” (Eur J Med Chem, 2023)
Values after ≈ are worked out from the molar mass of the structure shown.

Assays:
[1] = tested on: Burkholderia pseudomallei; test: Antibacterial activity against Burkholderia pseudomallei BPS2020IRBA002 under muller hinton medium by CLSI protocol based microdilution method; type: functional
[2] = tested on: Pseudomonas aeruginosa; test: Antibacterial activity against Pseudomonas aeruginosa PAD07 under succinate minimum medium by CLSI protocol based microdilution method; type: functional
[3] = tested on: Burkholderia pseudomallei; test: Antibacterial activity against Burkholderia pseudomallei BPS2020IRBA002 under 1 uM FeCl3 medium by CLSI protocol based microdilution method; type: functional
[4] = Antibacterial activity against Burkholderia pseudomallei BPS2020IRBA005 under 1 uM FeCl3 medium by CLSI protocol based microdilution method; type: functional; conditions: Burkholderia thailandensis
[5] = tested on: Burkholderia thailandensis; test: Antibacterial activity against Burkholderia thailandensis E264TS32C10 under succinate minimum medium by CLSI protocol based microdilution method; type: functional
[6] = tested on: Pseudomonas aeruginosa; test: Antibacterial activity against Pseudomonas aeruginosa AM85 under succinate minimum medium by CLSI protocol based microdilution method; type: functional
[7] = tested on: Pseudomonas aeruginosa; test: Antibacterial activity against Pseudomonas aeruginosa AM85 under 1 uM FeCl3 medium by CLSI protocol based microdilution method; type: functional
[8] = tested on: Burkholderia pseudomallei; test: Antibacterial activity against Burkholderia pseudomallei K96243 under muller hinton medium by CLSI protocol based microdilution method; type: functional
[9] = tested on: Burkholderia pseudomallei; test: Antibacterial activity against Burkholderia pseudomallei BPS2020IRBA003 under succinate minimum medium by CLSI protocol based microdilution method; type: functional
[10] = tested on: Burkholderia thailandensis; test: Antibacterial activity against Burkholderia thailandensis E264 under succinate minimum medium by CLSI protocol based microdilution method; type: functional
[11] = tested on: Burkholderia pseudomallei; test: Antibacterial activity against Burkholderia pseudomallei BPS2020IRBA001 under muller hinton medium by CLSI protocol based microdilution method; type: functional
[12] = tested on: Pseudomonas aeruginosa; test: Antibacterial activity against Pseudomonas aeruginosa PAO1 under muller hinton medium by CLSI protocol based microdilution method; type: functional
[13] = tested on: Burkholderia thailandensis; test: Antibacterial activity against Burkholderia thailandensis E264TS32C10 under muller hinton medium by CLSI protocol based microdilution method; type: functional
[14] = tested on: Pseudomonas aeruginosa; test: Antibacterial activity against Pseudomonas aeruginosa PAD07 under 1 uM FeCl3 medium by CLSI protocol based microdilution method; type: functional
[15] = tested on: Burkholderia thailandensis; test: Antibacterial activity against Burkholderia thailandensis E264TS32C12 under 1 uM FeCl3 medium by CLSI protocol based microdilution method; type: functional
[16] = tested on: Burkholderia pseudomallei; test: Antibacterial activity against Burkholderia pseudomallei BPS2020IRBA004 under muller hinton medium by CLSI protocol based microdilution method; type: functional
[17] = tested on: Burkholderia pseudomallei; test: Antibacterial activity against Burkholderia pseudomallei BPS2020IRBA003 under muller hinton medium by CLSI protocol based microdilution method; type: functional
[18] = tested on: Burkholderia pseudomallei; test: Antibacterial activity against Burkholderia pseudomallei K96243 under succinate minimum medium by CLSI protocol based microdilution method; type: functional
[19] = tested on: Burkholderia pseudomallei; test: Antibacterial activity against Burkholderia pseudomallei BPS2020IRBA001 under 1 uM FeCl3 medium by CLSI protocol based microdilution method; type: functional
[20] = tested on: Burkholderia thailandensis; test: Antibacterial activity against Burkholderia thailandensis E264TS32C47 under 1 uM FeCl3 medium by CLSI protocol based microdilution method; type: functional
[21] = tested on: Burkholderia pseudomallei; test: Antibacterial activity against Burkholderia pseudomallei BPS2020IRBA001 under succinate minimum medium by CLSI protocol based microdilution method; type: functional
[22] = tested on: Burkholderia thailandensis; test: Antibacterial activity against Burkholderia thailandensis E264TS32C12 under muller hinton medium by CLSI protocol based microdilution method; type: functional
[23] = tested on: Burkholderia thailandensis; test: Antibacterial activity against Burkholderia thailandensis E264TS32C10 under 1 uM FeCl3 medium by CLSI protocol based microdilution method; type: functional
[24] = tested on: Burkholderia thailandensis; test: Antibacterial activity against Burkholderia thailandensis E264 under muller hinton medium by CLSI protocol based microdilution method; type: functional
[25] = tested on: Burkholderia thailandensis; test: Antibacterial activity against Burkholderia thailandensis E264TS32C47 under muller hinton medium by CLSI protocol based microdilution method; type: functional
[26] = tested on: Pseudomonas aeruginosa; test: Antibacterial activity against Pseudomonas aeruginosa PAO1 under 1 uM FeCl3 medium by CLSI protocol based microdilution method; type: functional
[27] = tested on: Burkholderia thailandensis; test: Antibacterial activity against Burkholderia thailandensis E264 under 1 uM FeCl3 medium by CLSI protocol based microdilution method; type: functional
[28] = tested on: Burkholderia pseudomallei; test: Antibacterial activity against Burkholderia pseudomallei BPS2020IRBA005 under succinate minimum medium by CLSI protocol based microdilution method; type: functional
[29] = tested on: Pseudomonas aeruginosa; test: Antibacterial activity against Pseudomonas aeruginosa PAO1 under succinate minimum medium by CLSI protocol based microdilution method; type: functional
[30] = tested on: Burkholderia pseudomallei; test: Antibacterial activity against Burkholderia pseudomallei BPS2020IRBA005 under muller hinton medium by CLSI protocol based microdilution method; type: functional
[31] = tested on: Burkholderia thailandensis; test: Antibacterial activity against Burkholderia thailandensis E264TS32C47 under succinate minimum medium by CLSI protocol based microdilution method; type: functional
[32] = tested on: HepG2; test: Cytotoxicity against human HepG2 cells at 23 ug/ml after 48 hrs by CellTiter-Glo luminescent cell viability assay; type: toxicity, cell-based; conditions: hepg2, 48 h, dose 23 µg/ml
[33] = tested on: Burkholderia pseudomallei; test: Antibacterial activity against Burkholderia pseudomallei K96243 under 1 uM FeCl3 medium by CLSI protocol based microdilution method; type: functional
[34] = tested on: Pseudomonas aeruginosa; test: Antibacterial activity against Pseudomonas aeruginosa PAD07 under muller hinton medium by CLSI protocol based microdilution method; type: functional
[35] = tested on: Burkholderia thailandensis; test: Antibacterial activity against Burkholderia thailandensis E264TS32C12 under succinate minimum medium by CLSI protocol based microdilution method; type: functional
[36] = tested on: Pseudomonas aeruginosa; test: Antibacterial activity against Pseudomonas aeruginosa AM85 under muller hinton medium by CLSI protocol based microdilution method; type: functional
[37] = tested on: Burkholderia pseudomallei; test: Antibacterial activity against Burkholderia pseudomallei BPS2020IRBA002 under succinate minimum medium by CLSI protocol based microdilution method; type: functional
[38] = tested on: Burkholderia pseudomallei; test: Antibacterial activity against Burkholderia pseudomallei BPS2020IRBA003 under 1 uM FeCl3 medium by CLSI protocol based microdilution method; type: functional
[39] = tested on: HepG2; test: Cytotoxicity against human HepG2 cells at 25 ug/ml after 48 hrs by CellTiter-Glo luminescent cell viability assay; type: toxicity, cell-based; conditions: hepg2, 48 h, dose 25 µg/ml

Row | Structure (SMILES) | MIC [1] | MIC [2] | MIC [3] | MIC [4] | MIC [5] | MIC [6] | MIC [7] | MIC [8] | MIC [9] | MIC [10] | MIC [11] | MIC [12] | MIC [13] | MIC [14] | MIC [15] | MIC [16] | MIC [17] | MIC [18] | MIC [19] | MIC [20] | other results
1 | O=C(O)c1cn(C2CC2)c2cc(N3CCN(C(=O)c4cccc(O)c4O)CC3)c(F)cc2c1=O | 16 µg/mL (≈ 34.2 µM) | 1 µg/mL (≈ 2.14 µM) | 16 µg/mL (≈ 34.2 µM) | 8 µg/mL (≈ 17.1 µM) | 32 µg/mL (≈ 68.5 µM) | 128 µg/mL (≈ 274 µM) | > 128 µg/mL | 8 µg/mL (≈ 17.1 µM) | 8 µg/mL (≈ 17.1 µM) | 8 µg/mL (≈ 17.1 µM) | 32 µg/mL (≈ 68.5 µM) | 16 µg/mL (≈ 34.2 µM) | 32 µg/mL (≈ 68.5 µM) | 8 µg/mL (≈ 17.1 µM) | 16 µg/mL (≈ 34.2 µM) | 32 µg/mL (≈ 68.5 µM) | 16 µg/mL (≈ 34.2 µM) | 2 µg/mL (≈ 4.28 µM) | 32 µg/mL (≈ 68.5 µM) | 8 µg/mL (≈ 17.1 µM) | MIC [21]: 32 µg/mL (≈ 68.5 µM); MIC [22]: 32 µg/mL (≈ 68.5 µM); MIC [23]: 32 µg/mL (≈ 68.5 µM); MIC [24]: 16 µg/mL (≈ 34.2 µM); MIC [25]: 16 µg/mL (≈ 34.2 µM); MIC [26]: 32 µg/mL (≈ 68.5 µM); MIC [27]: 8 µg/mL (≈ 17.1 µM); MIC [28]: 8 µg/mL (≈ 17.1 µM); MIC [29]: 32 µg/mL (≈ 68.5 µM); MIC [30]: 64 µg/mL (≈ 137 µM); MIC [31]: 8 µg/mL (≈ 17.1 µM); Activity [32]: Non-Toxic; MIC [33]: 4 µg/mL (≈ 8.56 µM); MIC [34]: 8 µg/mL (≈ 17.1 µM); MIC [35]: 16 µg/mL (≈ 34.2 µM); MIC [36]: > 128 µg/mL; MIC [37]: 8 µg/mL (≈ 17.1 µM); MIC [38]: 16 µg/mL (≈ 34.2 µM)
2 | O=C(O)c1cn(C2CC2)c2cc(N3CCN(C(=O)c4ccc(O)c(O)c4)CC3)c(F)cc2c1=O | > 128 µg/mL | 8 µg/mL (≈ 17.1 µM) | > 128 µg/mL | > 128 µg/mL | > 128 µg/mL | 128 µg/mL (≈ 274 µM) | > 128 µg/mL | 64 µg/mL (≈ 137 µM) | 128 µg/mL (≈ 274 µM) | 64 µg/mL (≈ 137 µM) | > 128 µg/mL | 8 µg/mL (≈ 17.1 µM) | > 128 µg/mL | 8 µg/mL (≈ 17.1 µM) | > 128 µg/mL | 128 µg/mL (≈ 274 µM) | 128 µg/mL (≈ 274 µM) | 64 µg/mL (≈ 137 µM) | 128 µg/mL (≈ 274 µM) | > 128 µg/mL | MIC [21]: 128 µg/mL (≈ 274 µM); MIC [22]: > 128 µg/mL; MIC [23]: > 128 µg/mL; MIC [24]: 128 µg/mL (≈ 274 µM); MIC [25]: > 128 µg/mL; MIC [26]: 8 µg/mL (≈ 17.1 µM); MIC [27]: 128 µg/mL (≈ 274 µM); MIC [28]: > 128 µg/mL; MIC [29]: 8 µg/mL (≈ 17.1 µM); MIC [30]: > 128 µg/mL; MIC [31]: > 128 µg/mL; Activity [32]: Non-Toxic; MIC [33]: 64 µg/mL (≈ 137 µM); MIC [34]: 8 µg/mL (≈ 17.1 µM); MIC [35]: > 128 µg/mL; MIC [36]: > 128 µg/mL; MIC [37]: > 128 µg/mL; MIC [38]: 128 µg/mL (≈ 274 µM)
3 | O=C(O)c1cn(C2CC2)c2cc(N3CCN(C(=O)c4ccc(O)c(O)c4Cl)CC3)c(F)cc2c1=O | > 128 µg/mL | 1 µg/mL (≈ 1.99 µM) | > 128 µg/mL | > 128 µg/mL | > 128 µg/mL | > 128 µg/mL | > 128 µg/mL | 64 µg/mL (≈ 128 µM) | 128 µg/mL (≈ 255 µM) | 128 µg/mL (≈ 255 µM) | > 128 µg/mL | 32 µg/mL (≈ 63.8 µM) | > 128 µg/mL | 16 µg/mL (≈ 31.9 µM) | 128 µg/mL (≈ 255 µM) | > 128 µg/mL | 128 µg/mL (≈ 255 µM) | 32 µg/mL (≈ 63.8 µM) | 128 µg/mL (≈ 255 µM) | 128 µg/mL (≈ 255 µM) | Activity [39]: Non-Toxic; MIC [21]: 128 µg/mL (≈ 255 µM); MIC [22]: > 128 µg/mL; MIC [23]: > 128 µg/mL; MIC [24]: 128 µg/mL (≈ 255 µM); MIC [25]: 128 µg/mL (≈ 255 µM); MIC [26]: 16 µg/mL (≈ 31.9 µM); MIC [27]: 64 µg/mL (≈ 128 µM); MIC [28]: > 128 µg/mL; MIC [29]: 16 µg/mL (≈ 31.9 µM); MIC [30]: > 128 µg/mL; MIC [31]: 128 µg/mL (≈ 255 µM); MIC [33]: 16 µg/mL (≈ 31.9 µM); MIC [34]: 32 µg/mL (≈ 63.8 µM); MIC [35]: 128 µg/mL (≈ 255 µM); MIC [36]: > 128 µg/mL; MIC [37]: > 128 µg/mL; MIC [38]: > 128 µg/mL
